Here are results for twelve compounds from ChEMBL document CHEMBL1133485, “3alpha-(4-Substituted phenyl)nortropane-2beta-carboxylic acid methyl esters show selective binding at the norepinephrine transporter” (Bioorg Med Chem Lett, 2000).

For experiment [1], the target named is T1, Norepinephrine transporter (Rattus norvegicus, UniProt Q9WTR4). In words: Inhibition of 0.5 nM [3H]nisoxetine binding to Norepinephrine transporter.
In experiment [2] the target is Sodium-dependent dopamine transporter (Rattus norvegicus, UniProt P23977). Description: Displacement of 0.5 nM [3H]WIN-35248 from Dopamine transporter.
Experiment [3] concerns the target T2, Sodium-dependent serotonin transporter (Rattus norvegicus, UniProt P31652). Description: Inhibition of 0.2 nM [3H]paroxetine binding to Serotonin transporter.
Experiment [4] addresses T1, Norepinephrine transporter. Description: Inhibition of 0.5 nM [3H]nisoxetine binding toNorepinephrine transporter.
For experiment [5], the target named is T2, Sodium-dependent serotonin transporter.

T1 sequence (Q9WTR4 whole entry): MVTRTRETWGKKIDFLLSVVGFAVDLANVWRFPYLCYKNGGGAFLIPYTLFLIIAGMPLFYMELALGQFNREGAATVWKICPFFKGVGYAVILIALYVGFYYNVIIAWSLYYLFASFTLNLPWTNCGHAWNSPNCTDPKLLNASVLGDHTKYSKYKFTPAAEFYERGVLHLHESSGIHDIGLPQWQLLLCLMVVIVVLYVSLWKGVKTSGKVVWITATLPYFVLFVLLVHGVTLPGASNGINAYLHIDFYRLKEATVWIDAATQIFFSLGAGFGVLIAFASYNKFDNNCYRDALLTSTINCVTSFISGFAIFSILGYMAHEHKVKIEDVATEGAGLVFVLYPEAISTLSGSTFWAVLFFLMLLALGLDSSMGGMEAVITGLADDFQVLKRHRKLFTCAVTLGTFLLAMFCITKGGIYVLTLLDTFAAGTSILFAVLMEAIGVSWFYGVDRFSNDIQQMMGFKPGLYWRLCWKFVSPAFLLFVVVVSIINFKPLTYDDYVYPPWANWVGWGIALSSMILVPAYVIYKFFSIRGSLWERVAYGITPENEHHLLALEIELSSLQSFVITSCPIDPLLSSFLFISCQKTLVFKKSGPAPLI
T2 sequence (P31652 whole entry): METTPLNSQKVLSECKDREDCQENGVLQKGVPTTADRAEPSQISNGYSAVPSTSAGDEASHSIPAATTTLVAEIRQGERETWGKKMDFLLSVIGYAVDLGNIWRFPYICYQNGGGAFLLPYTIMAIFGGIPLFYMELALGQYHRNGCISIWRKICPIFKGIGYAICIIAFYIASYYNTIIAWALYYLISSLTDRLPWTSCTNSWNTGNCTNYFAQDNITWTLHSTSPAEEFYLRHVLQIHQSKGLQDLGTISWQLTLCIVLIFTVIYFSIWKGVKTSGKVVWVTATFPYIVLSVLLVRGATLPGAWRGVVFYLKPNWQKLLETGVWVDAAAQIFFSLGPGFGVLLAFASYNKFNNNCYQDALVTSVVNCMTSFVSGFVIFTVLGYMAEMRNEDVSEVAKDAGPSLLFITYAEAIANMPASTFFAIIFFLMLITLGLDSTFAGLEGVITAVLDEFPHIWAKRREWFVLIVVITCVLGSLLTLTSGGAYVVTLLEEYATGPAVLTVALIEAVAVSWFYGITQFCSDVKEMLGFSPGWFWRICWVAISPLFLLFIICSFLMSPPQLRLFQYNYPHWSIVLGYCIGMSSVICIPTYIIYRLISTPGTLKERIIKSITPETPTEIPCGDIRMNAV
Sequence of Sodium-dependent dopamine transporter (P23977 whole entry): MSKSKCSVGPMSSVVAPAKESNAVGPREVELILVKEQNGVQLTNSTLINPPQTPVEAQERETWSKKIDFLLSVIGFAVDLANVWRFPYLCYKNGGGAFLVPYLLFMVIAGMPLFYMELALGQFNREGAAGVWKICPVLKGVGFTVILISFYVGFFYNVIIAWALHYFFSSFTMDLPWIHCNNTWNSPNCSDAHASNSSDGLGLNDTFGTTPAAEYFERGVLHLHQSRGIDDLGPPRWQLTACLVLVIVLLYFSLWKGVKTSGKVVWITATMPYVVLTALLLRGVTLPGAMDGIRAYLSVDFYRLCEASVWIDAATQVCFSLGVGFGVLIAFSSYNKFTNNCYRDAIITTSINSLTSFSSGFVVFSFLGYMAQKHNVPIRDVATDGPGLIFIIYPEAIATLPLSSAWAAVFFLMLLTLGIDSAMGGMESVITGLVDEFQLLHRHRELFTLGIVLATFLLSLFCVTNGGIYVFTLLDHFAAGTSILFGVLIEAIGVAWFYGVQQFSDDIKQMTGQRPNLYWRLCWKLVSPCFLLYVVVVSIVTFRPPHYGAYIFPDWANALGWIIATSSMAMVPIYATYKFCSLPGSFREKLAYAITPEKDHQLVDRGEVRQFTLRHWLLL

Regarding `COC(=O)C1C2CCC(CC1c1ccc(Cl)cc1)N2` (stereo in doubt; 4b), the figures for the Ki in experiment [1] and in experiment [5] were 3.1 nM and 4.8 nM, respectively. The IC50 turned out to be 3.1 nM in experiment [2], 53 nM in experiment [3] and 5.14 nM in experiment [4].
On to `COC(=O)[C@H]1[C@@H](c2ccc(F)cc2)C[C@H]2CC[C@H]1N2C` (stereo in doubt; 5a), for which the results for the Ki in experiment [1] and in experiment [5] were 741 nM and 460 nM, respectively.
For `COC(=O)C1C2CCC(CC1c1ccc(C)cc1)N2` (stereo in doubt; 7c), the results for the Ki in experiment [1] and in experiment [5] were 4.4 nM and 12 nM, respectively. Also, the IC50 was found to be 0.84 nM in experiment [2], 135 nM in experiment [3] and 7.2 nM in experiment [4].
Consider `COC(=O)C1C2CCC(CC1c1ccc(F)cc1)N2` (stereo in doubt; 7a), for which the figures for the Ki in experiment [1] and in experiment [5] were 11.3 nM and 6.24 nM, respectively. Also, the IC50 in experiment [2] amounted to 4.4 nM; in experiment [4] it was 18.8 nM.
Regarding `COC(=O)C1C2CCC(CC1c1ccc(Cl)cc1)N2` (stereo in doubt; 7b), the Ki in experiment [1] was 3.28 nM; in experiment [5], 0.38 nM. Besides, in experiment [4], the IC50 turned out to be 5.45 nM.
Turning to `COC(=O)C1C(c2ccc(C)cc2)CC2CCC1N2C` (stereo in doubt; 5c), in experiment [1], the affinity corresponds to a Ki of 160 nM. Besides, the IC50 in experiment [4] worked out at 270 nM.
`COC(=O)C1C2CCC(CC1c1ccc(C)cc1)N2` (stereo in doubt; 4c): the Ki was found to be 5.2 nM in experiment [1] and 46 nM in experiment [5]. Moreover, the figures for the IC50 in experiment [2], in experiment [3] and in experiment [4] were 33.6 nM, 500 nM and 9 nM, respectively.
In experiment [5], `COC(=O)C1C(c2ccc(Cl)cc2)CC2CCC1N2C` (stereo in doubt; 5b) showed a Ki of 91 nM. This counts as double-digit nanomolar.
For `COC(=O)C1C2CCC(CC1c1ccc(F)cc1)N2` (stereo in doubt; 4a), the values for the Ki in experiment [1] and in experiment [5] were 5.9 nM and 8.4 nM, respectively. Moreover, the IC50 was found to be 32.6 nM in experiment [2], 92.4 nM in experiment [3] and 9.8 nM in experiment [4].
Compound `COC(=O)C1C(c2ccc(Cl)cc2)CC2CCC1N2C` (stereo in doubt; 6b) yielded a Ki in experiment [5] of 4 nM.
Consider `COC(=O)[C@H]1[C@@H](c2ccc(F)cc2)C[C@H]2CC[C@H]1N2C` (stereo in doubt; 6a), for which the Ki in experiment [1] was found to be 503 nM; in experiment [5], 69 nM.
For the compound `COC(=O)C1C(c2ccc(C)cc2)CC2CCC1N2C` (stereo in doubt; 6c), the Ki in experiment [1] is 36 nM.
